Measured values published in the NIST ThermoML archive (doi:10.1016/j.jct.2016.02.007).
Numbers after ± are expanded uncertainties.

Test: wn = mass fraction of the nth substance listed
Settings: 101.3 kPa, Liquid, Vibrating tube method

`CN(C)CCCO` [3-dimethylamino-1-propanol] + O showed a mass density (293.15 K, w1 = 0.1) of 992.9 ± 4.9 kg/m3, a mass density (293.15 K, w1 = 0.2) of 989.7 ± 4.8 kg/m3 and a mass density (293.15 K, w1 = 0.3) of 986.6 ± 5 kg/m3. For the same compound, the mass density (293.15 K, w1 = 0.4) was 981.7 ± 5 kg/m3, the mass density (293.15 K, w1 = 0.5) was 975.1 ± 5.2 kg/m3 and the mass density (293.15 K, w1 = 0.6) was 962.4 ± 5.5 kg/m3. For the same compound, the mass density (293.15 K, w1 = 0.7) was 948.3 ± 5.7 kg/m3, the mass density (293.15 K, w1 = 0.8) was 933.1 ± 6.1 kg/m3 and the mass density (293.15 K, w1 = 0.9) was 910.9 ± 6.7 kg/m3. For the same compound, the mass density (293.15 K, w1 = 1) was 886.7 ± 4.8 kg/m3, the mass density (298.15 K, w1 = 0.1) was 991.5 ± 4.9 kg/m3 and the mass density (298.15 K, w1 = 0.2) was 987.7 ± 4.9 kg/m3. For the same compound, the mass density (298.15 K, w1 = 0.3) was 983.9 ± 4.9 kg/m3, the mass density (298.15 K, w1 = 0.4) was 978.3 ± 5 kg/m3 and the mass density (298.15 K, w1 = 0.5) was 971.4 ± 5.2 kg/m3. It also gave a mass density (298.15 K, w1 = 0.6) of 958.5 ± 5.5 kg/m3, a mass density (298.15 K, w1 = 0.7) of 944.3 ± 5.7 kg/m3 and a mass density (298.15 K, w1 = 0.8) of 929.2 ± 6.1 kg/m3. It also gave a mass density (298.15 K, w1 = 0.9) of 907.1 ± 6.7 kg/m3, a mass density (298.15 K, w1 = 1) of 883 ± 4.8 kg/m3 and a mass density (303.15 K, w1 = 0.1) of 989.8 ± 4.9 kg/m3. For the same compound, the mass density (303.15 K, w1 = 0.2) was 985.5 ± 4.9 kg/m3, the mass density (303.15 K, w1 = 0.3) was 980.9 ± 5 kg/m3 and the mass density (303.15 K, w1 = 0.4) was 974.9 ± 5 kg/m3. The mass density (303.15 K, w1 = 0.5) was 967.6 ± 5.2 kg/m3, the mass density (303.15 K, w1 = 0.6) was 954.6 ± 5.6 kg/m3 and the mass density (303.15 K, w1 = 0.7) was 940.2 ± 5.7 kg/m3. The mass density (303.15 K, w1 = 0.8) was 925.2 ± 6.1 kg/m3, the mass density (303.15 K, w1 = 0.9) was 903.2 ± 6.7 kg/m3 and the mass density (303.15 K, w1 = 1) was 879.1 ± 4.8 kg/m3. It also gave a mass density (308.15 K, w1 = 0.1) of 987.9 ± 5 kg/m3, a mass density (308.15 K, w1 = 0.2) of 983.1 ± 4.9 kg/m3 and a mass density (308.15 K, w1 = 0.3) of 978 ± 5 kg/m3. For the same compound, the mass density (308.15 K, w1 = 0.4) was 971.4 ± 5 kg/m3, the mass density (308.15 K, w1 = 0.5) was 963.8 ± 5.3 kg/m3 and the mass density (308.15 K, w1 = 0.6) was 950.6 ± 5.6 kg/m3. The mass density (308.15 K, w1 = 0.7) was 936.1 ± 5.7 kg/m3, the mass density (308.15 K, w1 = 0.8) was 921.2 ± 6.1 kg/m3 and the mass density (308.15 K, w1 = 0.9) was 899.2 ± 6.7 kg/m3. It also gave a mass density (308.15 K, w1 = 1) of 875.1 ± 4.8 kg/m3, a mass density (313.15 K, w1 = 0.1) of 985.9 ± 5 kg/m3 and a mass density (313.15 K, w1 = 0.2) of 980.4 ± 5 kg/m3. For the same compound, the mass density (313.15 K, w1 = 0.3) was 974.8 ± 5 kg/m3, the mass density (313.15 K, w1 = 0.4) was 967.8 ± 5.1 kg/m3 and the mass density (313.15 K, w1 = 0.5) was 959.9 ± 5.3 kg/m3. The mass density (313.15 K, w1 = 0.6) was 946.5 ± 5.6 kg/m3, the mass density (313.15 K, w1 = 0.7) was 932 ± 5.7 kg/m3 and the mass density (313.15 K, w1 = 0.8) was 917.1 ± 6.1 kg/m3. The mass density (313.15 K, w1 = 0.9) was 895.2 ± 6.7 kg/m3, the mass density (313.15 K, w1 = 1) was 871.2 ± 4.8 kg/m3 and the mass density (318.15 K, w1 = 0.1) was 983.6 ± 5 kg/m3. The mass density (318.15 K, w1 = 0.2) was 977.3 ± 5 kg/m3, the mass density (318.15 K, w1 = 0.3) was 971.6 ± 5 kg/m3 and the mass density (318.15 K, w1 = 0.4) was 964.2 ± 5.1 kg/m3. The mass density (318.15 K, w1 = 0.5) was 956 ± 5.3 kg/m3, the mass density (318.15 K, w1 = 0.6) was 942.4 ± 5.6 kg/m3 and the mass density (318.15 K, w1 = 0.7) was 927.8 ± 5.7 kg/m3. For the same compound, the mass density (318.15 K, w1 = 0.8) was 912.9 ± 6.1 kg/m3, the mass density (318.15 K, w1 = 0.9) was 891.1 ± 6.7 kg/m3 and the mass density (318.15 K, w1 = 1) was 867.2 ± 4.8 kg/m3. For the same compound, the mass density (323.15 K, w1 = 0.1) was 981.2 ± 5 kg/m3, the mass density (323.15 K, w1 = 0.2) was 975 ± 5 kg/m3 and the mass density (323.15 K, w1 = 0.3) was 968.2 ± 5.1 kg/m3. For the same compound, the mass density (323.15 K, w1 = 0.4) was 960.4 ± 5.1 kg/m3, the mass density (323.15 K, w1 = 0.5) was 952.1 ± 5.3 kg/m3 and the mass density (323.15 K, w1 = 0.6) was 938.2 ± 5.6 kg/m3. For the same compound, the mass density (323.15 K, w1 = 0.7) was 923.6 ± 5.7 kg/m3, the mass density (323.15 K, w1 = 0.8) was 908.7 ± 6.1 kg/m3 and the mass density (323.15 K, w1 = 0.9) was 887 ± 6.7 kg/m3. It also gave a mass density (323.15 K, w1 = 1) of 863.1 ± 4.8 kg/m3, a mass density (328.15 K, w1 = 0.1) of 978.6 ± 5 kg/m3 and a mass density (328.15 K, w1 = 0.2) of 972 ± 5 kg/m3. The mass density (328.15 K, w1 = 0.3) was 964.7 ± 5.1 kg/m3, the mass density (328.15 K, w1 = 0.4) was 956.7 ± 5.1 kg/m3 and the mass density (328.15 K, w1 = 0.5) was 948 ± 5.3 kg/m3. It also gave a mass density (328.15 K, w1 = 0.6) of 934 ± 5.6 kg/m3, a mass density (328.15 K, w1 = 0.7) of 919.3 ± 5.7 kg/m3 and a mass density (328.15 K, w1 = 0.8) of 904.5 ± 6.1 kg/m3. It also gave a mass density (328.15 K, w1 = 0.9) of 882.9 ± 6.6 kg/m3, a mass density (328.15 K, w1 = 1) of 859.1 ± 4.8 kg/m3 and a mass density (333.15 K, w1 = 0.1) of 975.9 ± 5.1 kg/m3. The mass density (333.15 K, w1 = 0.2) was 968.9 ± 5.1 kg/m3, the mass density (333.15 K, w1 = 0.3) was 961 ± 5.1 kg/m3 and the mass density (333.15 K, w1 = 0.4) was 952.8 ± 5.1 kg/m3. For the same compound, the mass density (333.15 K, w1 = 0.5) was 943.9 ± 5.4 kg/m3, the mass density (333.15 K, w1 = 0.6) was 929.7 ± 5.6 kg/m3 and the mass density (333.15 K, w1 = 0.7) was 915 ± 5.7 kg/m3. The mass density (333.15 K, w1 = 0.8) was 900.2 ± 6.1 kg/m3, the mass density (333.15 K, w1 = 0.9) was 878.7 ± 6.6 kg/m3 and the mass density (333.15 K, w1 = 1) was 855 ± 4.8 kg/m3. It also gave a mass density (338.15 K, w1 = 0.1) of 973.1 ± 5.1 kg/m3, a mass density (338.15 K, w1 = 0.2) of 965.8 ± 5.1 kg/m3 and a mass density (338.15 K, w1 = 0.3) of 957.9 ± 5.1 kg/m3. For the same compound, the mass density (338.15 K, w1 = 0.4) was 948.9 ± 5.2 kg/m3, the mass density (338.15 K, w1 = 0.5) was 939.8 ± 5.4 kg/m3 and the mass density (338.15 K, w1 = 0.6) was 925.4 ± 5.7 kg/m3. It also gave a mass density (338.15 K, w1 = 0.7) of 910.6 ± 5.7 kg/m3, a mass density (338.15 K, w1 = 0.8) of 895.8 ± 6 kg/m3 and a mass density (338.15 K, w1 = 0.9) of 874.4 ± 6.6 kg/m3. It also gave a mass density (338.15 K, w1 = 1) of 850.8 ± 4.8 kg/m3, a mass density (343.15 K, w1 = 0.1) of 970.1 ± 5.1 kg/m3 and a mass density (343.15 K, w1 = 0.2) of 962.5 ± 5.2 kg/m3. For the same compound, the mass density (343.15 K, w1 = 0.3) was 954.2 ± 5.1 kg/m3, the mass density (343.15 K, w1 = 0.4) was 944.9 ± 5.2 kg/m3 and the mass density (343.15 K, w1 = 0.5) was 935.6 ± 5.4 kg/m3. It also gave a mass density (343.15 K, w1 = 0.6) of 921 ± 5.7 kg/m3, a mass density (343.15 K, w1 = 0.7) of 906.2 ± 5.6 kg/m3 and a mass density (343.15 K, w1 = 0.8) of 891.4 ± 5.9 kg/m3. The mass density (343.15 K, w1 = 0.9) was 870.1 ± 6.6 kg/m3 and the mass density (343.15 K, w1 = 1) was 846.7 ± 4.8 kg/m3.
